# Measured values: patent publication US7951827B2, “Synthesis and antiprotozoal activity of dicationic 3,5-diphenylisoxazoles” (The University of North Carolina at Chapel Hill, priority 2005, dated 2011)
# Structures can show the parent of a compound that is named as a salt. Where two headings read alike, the source gives them in different places.
# Key:
# [1] = test system: Trypanosoma brucei brucei; test: In vitro antiprotozoal activity against Trypanosoma brucei brucei; assay type: cell-based; details: Trypanosoma brucei
# Experimental: (§1) In vitro antiprotozoal activities, see Ismail, M. A., et al., J. Med. Chem. 46, 4761-4769 (2003), and cytotoxicity were measured following established protocols, see Balz, T., et al., EMBO J., 4, 1273-1277 (1985); Räz. B., et al., Acta Trop., 68:139-147 (1997); and Sperandeo, N. R. et al., Chem. Biochem., 4, 69-73 (2003). […] Other positive controls employed were melarsoprol (against T. brucei), chloroquine, and artemisinin (against P. falciparum), and podophyllotoxin (against VERO cells).
# [2] = test system: Plasmodium falciparum; test: In vitro antiprotozoal activity against Plasmodium falciparum; assay type: cell-based; details: for IC50: Plasmodium falciparum
# Experimental: as §1
# [3] = test system: VERO cells; test: Cytotoxicity to VERO cells; assay type: cell-based, African green monkey (Cercopithecus Aethiops); details: for IC50: Chlorocebus sabaeus, Vero, read-out: IC50 value against VERO cells
# Experimental: as §1
# [4] = Cytotoxicity to VERO cells; assay type: cell-based, African green monkey (Cercopithecus Aethiops); details: African green monkey (Cercopithecus aethiops), IC50 (μM) Cytotoxicity VERO cells
# Experimental: as §1
# [5] = Table 1, read-out: IC50 (μM) Trypanosoma brucei brucei
# [6] = Table 1, read-out: IC50 (μM) Plasmodium falciparum
# [7] = read-out: antiplasmodial IC50 values (P. falciparum)
# [8] = read-out: IC50 values against T. brucei brucei
Compound,"IC50 [1, 5] [µM]","IC50 [2, 6] [µM]","IC50 [2, 7] [µM]",melting point,"IC50 [1, 8] [µM]",selectivities against P. falciparum over T. brucei brucei [2] [fold],toxicity (VERO cells) in words [3],IC50 [3] [nM],IC50 [4] [µM]
"CC(C)NC(=N)c1ccc(-c2cc(-c3ccc(C(=N)NC(C)C)cc3)on2)cc1.Cl.Cl [Compound 4, 3,5-Bis[4-(N-isopropyl)amidinophenyl]isoxazole dihydrochloride]",0.196,0.0066,< 0.008,–,–,30,very nontoxic,> 100000,176
"CC(C)NC(=N)c1ccc(-c2cc(-c3cccc(C(=N)NC(C)C)c3)no2)cc1.Cl.Cl [Compound 14, 3-[3-(N-Isopropyl)amidinophenyl]-5-[4-(N-isopropyl)amidinophenyl]-isoxazole dihydrochloride]",0.488,0.0106,0.008 to 0.03,> 350 °C,–,45,very nontoxic,> 100000,187
"Cl.Cl.N=C(N)c1ccc(-c2cc(-c3cc(C(=N)N)ccc3[N+](=O)[O-])no2)cc1 [Compound 19, 3-(5-Amidino-2-nitrophenyl)-5-(4-amidinophenyl)isoxazole dihydrochloride]",0.0512,0.0021,–,238 to 240 °C,–,–,quite toxic,–,5.07
"CC(C)NC(=N)c1ccc(-c2cc(-c3cccc(C(=N)NC(C)C)c3)on2)cc1.Cl.Cl [Compound 23, 3-[4-(N-Isopropyl)amidinophenyl]-5-[3-(N-isopropyl)amidinophenyl]-isoxazole dihydrochloride]",0.316,0.0347,–,340 to 343 °C (dec.),–,–,very nontoxic,> 100000,186
"Cl.Cl.N=C(N)c1cccc(-c2cc(-c3ccc(C(=N)N)cc3[N+](=O)[O-])no2)c1 [Compound 27, 3-(4-Amidino-2-nitrophenyl)-5-(3-amidinophenyl)isoxazole dihydrochloride]",0.0194,0.0304,–,236 °C (dec.),–,–,low toxicity,> 100000,206
"COc1ccc(C(=N)N)cc1-c1cc(-c2ccc(C(=N)N)cc2[N+](=O)[O-])no1.Cl.Cl [Compound 30, 5-(5-Amidino-2-methoxyphenyl)-3-(4-amidino-2-nitrophenyl)isoxazole dihydrochloride]",0.0342,0.0195,0.008 to 0.03,260 °C (dec.),–,–,–,> 100000,116
"Cl.Cl.N=C(N)c1cccc(-c2cc(-c3cccc(C(=N)N)c3)on2)c1 [Compound 32, 3,5-Bis(3-amidinophenyl)isoxazole dihydrochloride]",0.029,0.0092,0.008 to 0.03,365 to 367 °C,0.029,–,low toxicity,> 100000,153
"CC(C)NC(=N)c1cccc(-c2cc(-c3cccc(C(=N)NC(C)C)c3)on2)c1.Cl.Cl [Compound 33, 3,5-Bis[3-(N-isopropyl)amidinophenyl]isoxazole dihydrochloride]",4.98,0.0431,–,260 °C (dec.),–,–,very nontoxic,> 100000,180
"Cl.Cl.N=C(N)c1cccc(-c2cc(-c3cc(C(=N)N)ccc3Cl)on2)c1 [Compound 36, 5-(5-Amidino-2-chlorophenyl)-3-(3-amidinophenyl)isoxazole dihydrochloride]",0.0251,0.0163,0.008 to 0.03,347 °C (dec.),–,–,low toxicity,> 100000,109
"Cl.Cl.N=C(N)c1cccc(-c2cc(-c3cc(C(=N)N)ccc3[N+](=O)[O-])no2)c1 [Compound 38, 3-(5-Amidino-2-nitrophenyl)-5-(3-amidinophenyl)isoxazole dihydrochloride]",0.085,0.104,–,220 °C (dec.),–,–,low toxicity,> 100000,177

# Stronger by IC50 [1, 5], values ahead:
"IC50 [1, 5] [µM]","IC50 [2, 6] [µM]","IC50 [2, 7] [µM]",melting point,"IC50 [1, 8] [µM]",Compound,selectivities against P. falciparum over T. brucei brucei [2] [fold],toxicity (VERO cells) in words [3],IC50 [3] [nM],IC50 [4] [µM]
0.0164,0.0663,–,335 to 337 °C (dec.),–,"COc1cc(C(=N)N)ccc1-c1cc(-c2ccc(C(=N)N)cc2)on1.Cl.Cl [Compound 11, 3-(4-Amidino-2-methoxyphenyl)-5-(4-amidinophenyl)isoxazole dihydrochloride]",–,–,> 100000,92.6
0.013,0.0061,< 0.008,–,–,"COc1cc(C(=N)N)ccc1-c1cc(-c2ccc(C(=N)N)cc2OC)on1 [Compound 12, 3,5-Bis(4-amidino-2-methoxyphenyl)isoxazole dihydrochloride]",–,–,> 100000,84.8
0.0118,0.0026,–,272 to 275 °C,–,"COc1ccc(C(=N)N)cc1-c1cc(-c2ccc(C(=N)N)cc2)on1.Cl.Cl [Compound 21, 3-(5-Amidino-2-methoxyphenyl)-5-(4-amidinophenyl)isoxazole dihydrochloride]",–,–,> 100000,213
0.0106,0.006,< 0.008,–,–,"COc1cc(C(=N)N)ccc1-c1cc(-c2ccc(C(=N)N)cc2)no1 [Compound 8, 5-(4-Amidino-2-methoxyphenyl)-3-(4-amidinophenyl)isoxazole dihydrochloride]",–,–,> 100000,122
0.0074,0.0192,0.008 to 0.03,240 °C (dec.),0.0035 to 0.009,"COc1ccc(C(=N)N)cc1-c1cc(-c2cccc(C(=N)N)c2)no1.Cl.Cl [Compound 37, 5-(5-Amidino-2-methoxyphenyl)-3-(3-amidinophenyl)isoxazole dihydrochloride]",–,–,> 100000,124
0.0065,0.0035,–,241 to 246 °C,0.0065,"COc1cc(C(=N)N)ccc1-c1cc(-c2cccc(C(=N)N)c2)no1.Cl.Cl [Compound 18, 5-(4-Amidino-2-methoxyphenyl)-3-(3-amidinophenyl)isoxazole dihydrochloride]",–,–,> 100000,177
0.0059,0.0089,0.008 to 0.03,288 °C (dec.),0.0035 to 0.009,"COc1cc(C(=N)N)ccc1-c1cc(-c2cccc(C(=N)N)c2)on1.Cl.Cl [Compound 29, 3-(4-Amidino-2-methoxyphenyl)-5-(3-amidinophenyl)isoxazole dihydrochloride]",–,–,> 100000,136
0.0057,0.0297,0.008 to 0.03,330 °C (dec.),0.0035 to 0.009,"COc1cc(C(=N)N)ccc1-c1cc(-c2cc(C(=N)N)ccc2OC)on1.Cl.Cl [Compound 31, 3-(4-Amidino-2-methoxyphenyl)-5-(5-amidino-2-methoxyphenyl)isoxazole dihydrochloride]",–,–,> 100000,191
